# Measured values: article PMC11451537, “P2X7 receptors exhibit at least three modes of allosteric antagonism” (Science Advances, 2024)
# Tests used:
# Type in all cases: cell-based
# hP2X7 [1] = target: T1, hP2X7 (Homo sapiens, UniProt Q99572); assay: TEVC recovery of current after complete inhibition (IC100), hP2X7; parameters: hP2X7-WT constructs used for electrophysiology are similarly unmodified full-length, wild-type receptor constructs; expressed in transfected cells; host or cells: Xenopus laevis oocytes injected with mRNA made from pcDNA3.1x; details: 120 s buffer wash, 100 μM ATP
# T1 sequence (Q99572 1-595): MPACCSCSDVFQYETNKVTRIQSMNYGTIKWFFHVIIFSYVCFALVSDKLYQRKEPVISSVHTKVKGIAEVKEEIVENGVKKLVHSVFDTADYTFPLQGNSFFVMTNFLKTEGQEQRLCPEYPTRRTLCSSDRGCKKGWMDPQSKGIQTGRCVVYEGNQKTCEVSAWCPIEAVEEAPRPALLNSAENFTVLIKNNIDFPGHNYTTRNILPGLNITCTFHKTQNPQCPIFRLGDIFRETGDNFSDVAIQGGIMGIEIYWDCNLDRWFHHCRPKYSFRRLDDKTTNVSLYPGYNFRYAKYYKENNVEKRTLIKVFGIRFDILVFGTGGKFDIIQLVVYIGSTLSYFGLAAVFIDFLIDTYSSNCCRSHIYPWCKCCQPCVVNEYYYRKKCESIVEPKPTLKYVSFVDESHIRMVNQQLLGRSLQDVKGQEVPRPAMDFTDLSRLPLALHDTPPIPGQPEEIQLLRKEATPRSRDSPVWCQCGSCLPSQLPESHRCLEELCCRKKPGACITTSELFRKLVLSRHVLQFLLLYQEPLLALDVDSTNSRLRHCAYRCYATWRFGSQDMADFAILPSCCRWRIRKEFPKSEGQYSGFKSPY
# Excerpt: Experiments were run in triplicate.
# hP2X7 [2] = target: T1, hP2X7; assay: TEVC inhibition dose-response (IC50), hP2X7 in Xenopus laevis oocytes; parameters: hP2X4-WT, and hP2X7-WT constructs used for electrophysiology are similarly unmodified full-length, wild-type receptor constructs; expressed in transfected cells; host or cells: Xenopus laevis oocytes injected with mRNA made from pcDNA3.1x; details: 100 μM ATP, mean ± SD, triplicate
# Excerpt: (§1) To evaluate the inhibitory response of an antagonist for a dilution series, an initial excitatory signal was evoked at a subtype-specific concentration of ATP. Next, the antagonist was applied at a test concentration for 60 s and then coapplied at the same test concentration of the antagonist with the identical subtype-specific concentration of ATP. The antagonized signal was then normalized against the preceding excitatory signal evoked by ATP for each individual oocyte tested. The pre- and post-antagonist signals were evoked by 10 μM ATP for hP2X1, 10 μM ATP for hP2X2, 1 μM ATP for hP2X3, 50 μM ATP for hP2X4, and 100 μM ATP for P2X7. For the K297V mutation in rP2X7, pre- and post-antagonist signals were evoked by 300 μM ATP. Each dataset was then fit to a nonlinear regression named “[inhibitor] vs. response – Variable slope (four parameters)” in GraphPad Prism 9 to produce a sigmoidal curve and afford an IC50 value. Each singular condition was used to generate an average which is reported plus or minus its SD between three discrete trials.
# hP2X2 = target: T2, hP2X2 (Homo sapiens, UniProt Q9UBL9); assay: TEVC inhibition dose-response (IC50), hP2X2 in Xenopus laevis oocytes; details: 10 μM ATP, mean ± SD, triplicate
# T2 construct: The hP2X1-WT, hP2X2-WT, hP2X3-WT, hP2X4-WT, and hP2X7-WT constructs used for electrophysiology are similarly unmodified full-length, wild-type receptor constructs; expressed in transfected cells; host or cells: Xenopus laevis oocytes injected with mRNA made from pcDNA3.1x
# T2 sequence (Q9UBL9 1-471): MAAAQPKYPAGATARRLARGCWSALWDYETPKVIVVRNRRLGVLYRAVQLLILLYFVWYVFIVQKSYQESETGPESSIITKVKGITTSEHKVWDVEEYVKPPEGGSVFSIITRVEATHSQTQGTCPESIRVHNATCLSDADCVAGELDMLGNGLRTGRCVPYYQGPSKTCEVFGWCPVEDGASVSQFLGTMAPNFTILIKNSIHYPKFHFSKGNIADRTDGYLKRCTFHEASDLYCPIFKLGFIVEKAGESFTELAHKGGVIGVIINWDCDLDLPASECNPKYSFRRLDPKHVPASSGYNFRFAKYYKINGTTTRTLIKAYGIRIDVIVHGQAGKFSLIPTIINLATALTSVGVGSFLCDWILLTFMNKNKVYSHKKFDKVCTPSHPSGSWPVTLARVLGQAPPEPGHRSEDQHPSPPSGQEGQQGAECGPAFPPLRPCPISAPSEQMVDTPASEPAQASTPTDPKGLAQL
# Excerpt: as §1
# hP2X4 = target: T3, hP2X4 (Homo sapiens, UniProt Q99571); assay: TEVC inhibition dose-response (IC50), hP2X4 in Xenopus laevis oocytes; details: 50 μM ATP, mean ± SD, triplicate
# T3 sequence (Q99571 1-388): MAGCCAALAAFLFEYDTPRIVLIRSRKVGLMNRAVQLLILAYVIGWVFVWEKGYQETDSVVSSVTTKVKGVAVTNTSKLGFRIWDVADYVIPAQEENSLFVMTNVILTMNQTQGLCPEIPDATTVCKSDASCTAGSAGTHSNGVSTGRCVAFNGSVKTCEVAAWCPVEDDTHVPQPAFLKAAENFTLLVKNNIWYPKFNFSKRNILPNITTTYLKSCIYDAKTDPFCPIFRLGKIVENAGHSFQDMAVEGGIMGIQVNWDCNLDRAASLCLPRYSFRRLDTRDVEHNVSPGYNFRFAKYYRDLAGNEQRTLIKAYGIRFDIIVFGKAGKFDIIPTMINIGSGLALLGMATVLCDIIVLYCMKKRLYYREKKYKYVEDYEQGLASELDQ
# Excerpt: as §1
smiles,measurement,setting,value
O=S(=O)(O)c1ccc(N=C2C=CC(=C(c3ccc(Nc4ccc(S(=O)(=O)O)cc4)cc3)c3ccc(Nc4ccc(S(=O)(=O)O)cc4)cc3)C=C2)cc1 [methyl blue],Recovery of activation (% of baseline current),"hP2X7 [1]; hP2X7, 40-s IC100 application",34 ± 3%
same,Recovery of activation (% of baseline current),"hP2X7 [1]; hP2X7, 120-s IC100 application",17 ± 6%
same,Recovery of activation (% of baseline current),"hP2X7 [1]; hP2X7, 240-s IC100 application",2 ± 1%
same,IC50,hP2X7 [2],4 ± 2 µM
same,IC50,hP2X2,13 ± 2 µM
same,IC50,hP2X4,51 ± 6 µM
